In patent publication US20220081412A1, “QUINOLINYL-PYRAZINE-CARBOXAMIDE COMPOUNDS AND USES THEREOF” (The Regents of the University of Michigan, priority 2018, published 2022):

System: MIA PaCa-2 cells
Experiment: Bru-seq analysis for nascent RNA synthesis (log2FC of genes, GSEA gene sets)
Assay type: cell-based, human
Settings: 4 h
[1] = gene set HALLMARK_IL2_STAT5_SIGNALING
[2] = gene set HALLMARK_IL6_JAK_STAT3_SIGNALING
[3] = gene set HALLMARK_MTORC1_SIGNALING
[4] = gene set HALLMARK_OXIDATIVE_PHOSPHORYLATION
[5] = gene set HALLMARK_PI3K_AKT_MTOR_SIGNALING
[6] = gene set HALLMARK_TNFA_SIGNALING_VIA_NFKB
[7] = gene set HALLMARK_UNFOLDED_PROTEIN_RESPONSE
[8] = gene set HALLMARK_UV_RESPONSE_UP
[9] = gene set HALLMARK_XENOBIOTIC_METABOLISM
[10] = gene set HELLER_SILENCED_BY_METHYLATION_DN
[11] = gene set KAN_RESPONSE_TO_ARSENIC_TRIOXIDE
[12] = gene set KEGG_ACUTE_MYELOID_LEUKEMIA
[13] = gene set KEGG_ADIPOCYTOKINE_SIGNALING_PATHWAY
[14] = gene set KEGG_ALDOSTERONE_REGULATED_SODIUM_REABSORPTION
[15] = gene set KEGG_ANTIGEN_PROCESSING_AND_PRESENTATION
[16] = gene set KEGG_CITRATE_CYCLE_TCA_CYCLE
[17] = gene set KEGG_ENDOMETRIAL_CANCER
[18] = gene set KEGG_FATTY_ACID_METABOLISM
[19] = gene set KEGG_FRUCTOSE_AND_MANNOSE_METABOLISM
[20] = gene set KEGG_GLYCEROLIPID_METABOLISM
[21] = gene set KEGG_GLYCOLYSIS_GLUCONEOGENESIS
[22] = gene set KEGG_INSULIN_SIGNALING_PATHWAY
[23] = gene set KEGG_MAPK_SIGNALING_PATHWAY
[24] = gene set KEGG_MTOR_SIGNALING_PATHWAY
[25] = gene set KEGG_OXIDATIVE_PHOSPHORYLATION
[26] = gene set KEGG_PARKINSONS_DISEASE
[27] = gene set KEGG_PORPHYRIN_AND_CHLOROPHYLL_METABOLISM
[28] = gene set KEGG_PPAR_SIGNALING_PATHWAY
[29] = gene set KEGG_PYRUVATE_METABOLISM
[30] = gene set KEGG_SNARE_INTERACTIONS_IN_VESICULAR_TRANSPORT
[31] = gene set KEGG_SYSTEMIC_LUPUS_ERYTHEMATOSUS
[32] = gene set KEGG_VALINE_LEUCINE_AND_ISOLEUCINE_DEGRADATION
[33] = gene set PODAR_RESPONSE_TO_ADAPHOSTIN_UP
[34] = gene set REACTOME_CHOLESTEROL_BIOSYNTHESIS
[35] = gene set REACTOME_RNA_POL_I_PROMOTER_OPENING
[36] = gene set REACTOME_UNFOLDED_PROTEIN_RESPONSE
[37] = gene set SCHMIDT_POR_TARGETS_IN_LIMB_BUD_UP
[38] = gene set WILCOX_RESPONSE_TO_PROGESTERONE_UP
[39] = gene set ZHANG_TLX_TARGETS_36HR_UP
[40] = top downregulated genes, MIA PaCa-2 cells

CCN(CC)CCCC(C)Nc1cnc(C(=O)Nc2cc(C)cc3cccnc23)cn1 (stereo not shown) [J4, 5-((5-(diethylamino)pentan-2-yl)amino)-N-(6-methylquinolin-8-yl)pyrazine-2-carboxamide]
ES [1]: 0.424 | NES [1]: 1.597 | ES [2]: 0.443 | NES [2]: 1.405 | ES [3]: 0.626 | NES [3]: 2.450 | ES (gene set HALLMARK_MYOGENESIS): 0.541 | NES (gene set HALLMARK_MYOGENESIS): 1.885 | ES [4]: 0.403 | NES [4]: 1.601 | ES (gene set HALLMARK_P53_PATHWAY): 0.565 | NES (gene set HALLMARK_P53_PATHWAY): 2.171 | ES (gene set HALLMARK_PEROXISOME): 0.457 | NES (gene set HALLMARK_PEROXISOME): 1.612 | ES [5]: 0.566 | NES [5]: 2.033 | ES [6]: 0.536 | NES [6]: 2.043 | ES [7]: 0.582 | NES [7]: 2.173 | ES [8]: 0.478 | NES [8]: 1.769 | ES [9]: 0.409 | NES [9]: 1.503 | ES [10]: 0.714 | NES [10]: 2.396 | ES (gene set HORTON_SREBF_TARGETS): 0.911 | NES (gene set HORTON_SREBF_TARGETS): 2.446 | ES [11]: 0.655 | NES [11]: 2.270 | ES [12]: 0.524 | NES [12]: 1.701 | ES [13]: 0.547 | NES [13]: 1.770 | ES [14]: 0.556 | NES [14]: 1.480 | ES [15]: 0.536 | NES [15]: 1.506 | ES [16]: 0.561 | NES [16]: 1.683 | ES [17]: 0.482 | NES [17]: 1.543 | ES [18]: 0.507 | NES [18]: 1.505 | ES [19]: 0.547 | NES [19]: 1.529 | ES [20]: 0.573 | NES [20]: 1.640 | ES [21]: 0.578 | NES [21]: 1.735 | ES [22]: 0.455 | NES [22]: 1.663 | ES (gene set KEGG_LYSOSOME): 0.611 | NES (gene set KEGG_LYSOSOME): 2.224 | ES [23]: 0.393 | NES [23]: 1.504 | ES (gene set KEGG_MELANOGENESIS): 0.526 | NES (gene set KEGG_MELANOGENESIS): 1.713 | ES [24]: 0.530 | NES [24]: 1.631 | ES [25]: 0.464 | NES [25]: 1.705 | ES [26]: 0.424 | NES [26]: 1.536 | ES [27]: 0.613 | NES [27]: 1.657 | ES [28]: 0.583 | NES [28]: 1.733 | ES (gene set KEGG_PROSTATE_CANCER): 0.445 | NES (gene set KEGG_PROSTATE_CANCER): 1.564 | ES [29]: 0.525 | NES [29]: 1.529 | ES [30]: 0.535 | NES [30]: 1.642 | ES [31]: 0.689 | NES [31]: 2.185 | ES [32]: 0.491 | NES [32]: 1.536 | ES (gene set LEONARD_HYPDXIA): 0.811 | NES (gene set LEONARD_HYPDXIA): 2.480 | ES (gene set LE_EGR2_TARGETS_DN): 0.689 | NES (gene set LE_EGR2_TARGETS_DN): 2.287 | ES [33]: 0.678 | NES [33]: 2.520 | ES (gene set QI_HYPDXIA): 0.624 | NES (gene set QI_HYPDXIA): 2.258 | ES (gene set REACTOME_AMYLO1DS): 0.753 | NES (gene set REACTOME_AMYLO1DS): 2.309 | ES [34]: 0.913 | NES [34]: 2.477 | ES [35]: 0.820 | NES [35]: 2.377 | ES [36]: 0.651 | NES [36]: 2.246 | ES [37]: 0.921 | NES [37]: 2.469 | ES [38]: 0.642 | NES [38]: 2.380 | ES [39]: 0.615 | NES [39]: 2.339 | ES (gene set ZHANG_TLX_TARGETS_UP): 0.710 | NES (gene set ZHANG_TLX_TARGETS_UP): 2.353 | log2FC ABCA1 [40]: −1.14 | log2FC AGAP6 [40]: −0.85 | log2FC AKAP5 [40]: −0.77 | log2FC CACNG8 [40]: −0.75 | log2FC CCND1 [40]: −0.67 | log2FC FERMT1 [40]: −0.91 | log2FC GPR75-ASB3 [40]: −0.89 | log2FC GPR135 [40]: −1.30 | log2FC HRH4 [40]: −1.09 | log2FC MX2 [40]: −0.78 | log2FC NEXN [40]: −0.76 | log2FC NOG [40]: −0.93 | log2FC NOXRED1 [40]: −0.73 | log2FC NPIPB11 [40]: −0.67 | log2FC NPR2 [40]: −1.08 | log2FC NTSR1 [40]: −0.89 | log2FC PTCH2 [40]: −0.72 | log2FC RFLNB [40]: −0.79 | log2FC SPDYA [40]: −1.18 | log2FC SYCE2 [40]: −0.98 | log2FC TAS2R20 [40]: −0.81 | log2FC TNS4 [40]: −1.05 | log2FC TSPAN4 [40]: −0.68 | log2FC TXNRD3NB [40]: −0.72 | log2FC ZDHHC11 [40]: −0.86
